Data reported in patent publication US5449787A, “N,N'-disubstituted amide derivatives” (Kyorin Pharmaceutical Co., Ltd., priority 1992, dated 1995).
Where a name gives a salt, the structure may show the parent alone.

Columns and labels:
5-HT3 receptor [1] = target: T1, 5-HT3 receptor (Rattus norvegicus, UniProt P35563); assay: Antagonistic action on von Bezold Jarisch reflex; assay type: in vivo; parameters: Under the anesthetization of rat with urethane/chloralose; from tissue; host or cells: whole anaesthetized rat (in vivo); receptor endogenous, by own knowledge on vagal afferents; details: urethane/chloralose-anesthetized rat, 5-HT 1 mg/kg intravenous; dose of test compound not given
T1 sequence (P35563 24-483): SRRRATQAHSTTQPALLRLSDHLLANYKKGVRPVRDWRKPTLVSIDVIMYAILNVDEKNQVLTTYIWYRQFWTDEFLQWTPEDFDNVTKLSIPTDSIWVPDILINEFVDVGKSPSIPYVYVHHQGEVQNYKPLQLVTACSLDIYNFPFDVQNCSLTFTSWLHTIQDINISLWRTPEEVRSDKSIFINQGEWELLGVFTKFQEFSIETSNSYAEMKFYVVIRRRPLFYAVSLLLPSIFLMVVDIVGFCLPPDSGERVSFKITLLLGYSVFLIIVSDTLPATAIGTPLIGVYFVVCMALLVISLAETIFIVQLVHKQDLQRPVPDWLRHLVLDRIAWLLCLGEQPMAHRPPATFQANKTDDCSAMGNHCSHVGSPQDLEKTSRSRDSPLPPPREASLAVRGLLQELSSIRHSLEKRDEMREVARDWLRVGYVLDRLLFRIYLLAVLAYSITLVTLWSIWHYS
Excerpt: (§1) The compound of the present invention has an antagonistic action to 5-HT receptor, in particular, to 5-HT3 receptor. Affinity of the compound of the present invention to 5-HT3 receptor is shown by a receptor-binding assay [refer to Gavin J. Kilpatrick et al, Eur. J. Pharmacol., 159, 157 (1989)] using [^3 H]GR65630 for a tracer legend. Moreover, the antagonistic action to 5-HT3 receptor is shown through inhibition of von Bezold Jarisch reflex caused by intravenously administering 5-HT to rat.
The antagonistic action of testing compounds to 5-HT3 was assayed according to the method described in Naunyn-Schmiedeberg's Arch. Pharmacol., vol. 326, 36 (1984).
Under the anesthetization of rat with urethane/chloralose, the blood pressure was monitored with hemodynamometer frown carotid arteries and the heart rate was monitored from electrocardiogram.

5-HT3 receptor [2] = target: T1, 5-HT3 receptor; assay: 5-HT3 receptor-binding assay using [3H]GR65630 (rat cerebral cortex synaptic membrane); parameters: A crude specimen of synaptic membrane was prepared from the cerebral cortex of rat; from tissue; host or cells: rat cerebral cortex, crude synaptic membrane; details: [3H]GR65630 0.2-0.3 nM, 50 mM HEPES with Triton X-100, 30 minutes at 23° C., nonspecific: 100 μM metoclopramide
Excerpt: as §1
The specific 5-HT3 receptor-binding assay was performed according to the method by G. J. Kilpatrick et al. using [^3 H] GR 65630 as a tracer ligand.
A crude specimen of synaptic membrane was prepared from the cerebral cortex of rat and used for experiment by suspending it into 50 mM IIEPES buffer (pl 7.4) added with Triton X-100.
Next, testing compounds of several kinds of concentration and tritium-labelled GR 65630 (final concentration 0.2-0.3 nM) were added to the suspension of membrane and allowed to react for 30 minutes at 23° C. After the reaction, the reaction mixture was filtered under suction and the filter was washed with 50 mM HEPES buffer. Then, the radioactivity left behind on the filter was determined with a liquid scintillation counter.
The nonspecific binding was determined in the presence of 100 μM metoclopramide.
Then, 50% inhibitory concentration (IC50) of the compounds of Examples 10 through 12 was determined graphically (Table 1).

inhibition of reflex bradycardia caused by intravenous 5-HT (von Bezold Jarisch reflex) (5-HT3 receptor [1]) | IC50 (5-HT3 receptor [2]) | SMILES
inhibited the reflex bradycardia | 1 nM | CCN(C)[C@@H]1CN(C(=O)c2nn(C)c3ccccc23)C[C@@H]1C (relative stereo) [Example 10, Cis-3-(N-ethyl-N-methyl)amino-4-methyl-1-(1-methylind-azol-3-ylcarbonyl)pyrrolidine hydrochloride]
 | 3 nM | CN(C)C1CCN(C(=O)c2nn(C)c3ccccc23)C1 (centres unmarked) [Example 11, 3-Dimethylamino-(1-methylindazol-3-ylcarbonyl)pyrrolidine hydrochloride]
inhibited the reflex bradycardia | 2 nM | CCN(C)[C@@H]1CN(C(=O)c2cn(C)c3ccccc23)C[C@@H]1C (relative stereo) [Example 12, Cis-3-(N-ethyl-N-methyl)amino-4-methyl-1-(1-methylindol-3-ylcarbonyl)pyrrolidine hydrochloride]
